The values that follow are results of earlier work, collected in patent publication US5834251A, “Methods of modifying carbohydrate moieties” (Alko Group Ltd., priority 1994, dated 1998).

Each structure is given as a SMILES string.

The data set deals with α-2,6 Sialyltransferase, EC 2.4.99.1, from rat liver (Rattus norvegicus, UniProt P13721). The settings on record: read-out: Km for the sugar donor CMP-NeuAc; commercially available enzyme, such as that from rat liver.
Sequence of α-2,6 Sialyltransferase, EC 2.4.99.1, from rat liver (P13721 whole entry): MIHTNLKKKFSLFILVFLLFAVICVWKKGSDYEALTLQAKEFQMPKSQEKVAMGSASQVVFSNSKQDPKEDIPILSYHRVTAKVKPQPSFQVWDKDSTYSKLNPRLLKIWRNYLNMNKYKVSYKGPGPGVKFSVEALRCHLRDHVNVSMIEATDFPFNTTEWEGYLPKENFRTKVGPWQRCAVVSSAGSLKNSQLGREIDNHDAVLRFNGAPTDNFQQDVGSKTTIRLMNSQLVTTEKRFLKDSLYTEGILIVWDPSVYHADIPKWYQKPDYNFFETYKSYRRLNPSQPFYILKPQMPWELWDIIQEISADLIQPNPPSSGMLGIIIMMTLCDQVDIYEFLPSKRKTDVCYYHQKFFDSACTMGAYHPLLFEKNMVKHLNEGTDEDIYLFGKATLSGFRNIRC

`CC(=O)NC1C(O)CC(OP(=O)(O)OCC2OC(n3ccc(N)nc3=O)C(O)C2O)(C(=O)O)OC1C(O)C(O)CO` (stereo not shown) [CMP-NeuAc, CMP-N-acetylneuraminic acid]: the Km (usually the concentration of substrate that gives half-maximal velocity) is 85 µM.
